# Patent US11840686B2, “Modulation of prekallikrein (PKK) expression” (Ionis Pharmaceuticals, Inc., priority 2013, dated 2023)
# Strand notation (5' to 3'): a small letter for the sugar, then the base; units joined by * are phosphorothioate-linked, units joined directly phosphodiester-linked; [ ] holds rarer units or linkages, { } end groups; capitals alone tell only the bases. e = 2'-O-(2-methoxyethyl) (MOE); [5mC] = 5-methylcytosine; d = 2'-deoxy (DNA)
# Test system: human PKK mRNA
# Test: Antisense inhibition of human PKK mRNA in HepaRG cells, 3,000 nM (Example 1)
# Type: cell-based
# Details: Table 1; PKK mRNA, HepaRG cells, 3,000 nM, electroporation, ~24 h, relative to untreated control cells
# Procedure, shortened: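 Values give percent PKK mRNA reduction relative to untreated controls, normalised to RIBOGREEN total RNA. mRNA was quantified by real-time PCR (RTS3454) about 24 h after electroporation. Each 20-mer MOE gapmer was delivered at 3,000 nM into 20,000 HepaRG cells per well.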
row,Substance,% inhibition
1,530941 (antisense eA*eA*e[5mC]*eT*eG*dT*dA*dG*d[5mC]*dA*dA*dA*d[5mC]*dA*dA*eG*eG*eA*eA*eA) [compound 530941],22%
2,530982 (antisense eT*eA*eA*eA*eG*dT*dT*d[5mC]*dT*dT*dT*dT*dG*d[5mC]*dA*eG*eG*eT*eT*eA) [compound 530982],0%
3,530997 (eA*eA*eA*eA*e[5mC]*dT*dG*dA*d[5mC]*dA*dG*d[5mC]*dG*dA*dA*eT*e[5mC]*eA*eT*e[5mC]; antisense) [compound 530997],39%
4,530999 (e[5mC]*eA*eG*eT*e[5mC]*dT*dT*d[5mC]*dT*dG*dG*dG*dA*dG*dT*eA*eA*eA*eG*eA; antisense) [compound 530999],31%
5,530930 (antisense eA*eA*eA*eT*eG*dA*dA*d[5mC]*dG*dG*dT*d[5mC]*dT*dT*d[5mC]*eA*eA*eG*e[5mC]*eT) [compound 530930],17%
6,530957 (antisense eG*eG*e[5mC]*eA*eA*dG*d[5mC]*dA*d[5mC]*dT*dT*dA*dT*dT*dT*eG*eA*eT*eG*eA) [compound 530957],56%
7,530951 (antisense e[5mC]*eA*eA*eA*e[5mC]*dA*d[5mC]*d[5mC]*dT*dT*dG*dG*dG*dT*dG*eG*eA*eA*eT*eG) [compound 530951],49%
8,530950 (antisense eA*e[5mC]*e[5mC]*eT*eT*dG*dG*dG*dT*dG*dG*dA*dA*dT*dG*eT*eG*e[5mC]*eA*e[5mC]) [compound 530950],47%
9,531001 (eA*eG*eA*eT*eA*dA*dT*d[5mC]*dT*dT*dA*dA*dG*dA*dA*eA*e[5mC]*eA*e[5mC]*eT; antisense) [compound 531001],44%
10,530960 (antisense eA*eT*eT*e[5mC]*eT*dT*d[5mC]*dA*dA*d[5mC]*dA*d[5mC]*dT*dG*d[5mC]*eT*eA*eA*e[5mC]*e[5mC]) [compound 530960],58%

# Same assay, conditions: Table 2; PKK mRNA, HepaRG cells, 3,000 nM, electroporation, ~24 h, relative to untreated control cells
row,Substance,% inhibition
1,531011 (e[5mC]*e[5mC]*eA*eA*eG*dA*dA*dG*dA*dG*dT*dT*dT*dG*dT*eT*e[5mC]*e[5mC]*eT*e[5mC]; antisense) [compound 531011],0%
2,531060 (antisense eT*eG*eG*eT*eG*dA*dT*dG*d[5mC]*d[5mC]*d[5mC]*dA*d[5mC]*d[5mC]*dA*eA*eA*e[5mC]*eG*e[5mC]) [compound 531060],35%
3,531044 (antisense eG*eG*e[5mC]*eA*eT*dT*d[5mC]*dT*dT*d[5mC]*dA*dT*dT*dT*dG*eT*eT*eA*e[5mC]*e[5mC]) [compound 531044],68%
4,531048 (antisense eT*eT*eA*eT*eA*dA*dT*d[5mC]*dT*dT*dG*dA*dT*dA*dT*e[5mC]*eT*eT*eT*eT) [compound 531048],42%
5,531017 (eA*e[5mC]*eT*eG*eG*dT*dG*dT*d[5mC]*d[5mC]*dT*dA*dT*dG*dA*eG*eT*eG*eA*e[5mC]; antisense) [compound 531017],31%
6,531054 (antisense e[5mC]*eT*eT*eT*eA*dT*dA*dG*d[5mC]*d[5mC]*dA*dG*d[5mC]*dA*d[5mC]*eA*eG*eA*e[5mC]*e[5mC]) [compound 531054],48%
7,531074 (e[5mC]*eT*eT*eT*eG*d[5mC]*dA*dG*dA*dT*dG*dA*dG*dG*dA*e[5mC]*e[5mC]*e[5mC]*e[5mC]*e[5mC]; antisense) [compound 531074],67%
8,531038 (antisense e[5mC]*eA*eA*e[5mC]*eA*dG*dT*dT*dG*dG*dT*dA*dT*dA*dA*eA*eT*eT*eG*eT) [compound 531038],22%
9,531062 (antisense e[5mC]*eA*eG*eG*eT*dT*dG*d[5mC]*dT*d[5mC]*d[5mC]*d[5mC]*dT*dG*d[5mC]*eG*eG*eG*e[5mC]*eA) [compound 531062],39%
10,531082 (eA*eT*eA*eT*eT*dG*dG*dT*dT*dT*dT*dT*dG*dG*dA*eA*eT*eT*e[5mC]*eT; antisense) [compound 531082],31%
11,531035 (antisense eG*eT*eA*eG*eG*d[5mC]*dA*dT*dA*dT*dT*dG*dG*dT*dT*eT*eT*eT*eG*eG) [compound 531035],46%

# Same assay, conditions: Table 3; HepaRG cells, electroporation with 3,000 nM antisense oligonucleotide, approx. 24 hours; PKK mRNA by RT-PCR (RTS3454), relative to untreated control cells
row,Substance,% inhibition
1,531097 (eA*e[5mC]*e[5mC]*eA*eA*dG*d[5mC]*dT*d[5mC]*dA*dG*d[5mC]*d[5mC]*dT*d[5mC]*e[5mC]*eA*eA*e[5mC]*eT; antisense) [compound 531097],41%
2,531139 (antisense eT*e[5mC]*eA*e[5mC]*eT*dA*dA*dA*dA*d[5mC]*dA*dA*dA*dA*dA*eT*eA*e[5mC]*eT*eT) [compound 531139],0%
3,531098 (eT*eT*eA*eT*eT*dA*dG*dT*d[5mC]*dA*dA*dA*dT*d[5mC]*dA*e[5mC]*e[5mC]*e[5mC]*eA*eA; antisense) [compound 531098],19%
4,531158 (antisense eA*e[5mC]*e[5mC]*eT*eT*dA*d[5mC]*dA*dA*dG*d[5mC]*dA*dT*d[5mC]*dT*eT*eT*eT*e[5mC]*e[5mC]) [compound 531158],41%
5,531085 (eA*eG*eG*e[5mC]*eA*d[5mC]*dA*dG*dA*dG*d[5mC]*d[5mC]*dA*dG*d[5mC]*eA*e[5mC]*e[5mC]*e[5mC]*eA; antisense) [compound 531085],9%
6,531126 (antisense eT*eT*eT*eT*eG*dA*dA*dT*d[5mC]*dT*dT*d[5mC]*dA*dT*dT*e[5mC]*eA*eA*eA*eG) [compound 531126],0%
7,531147 (antisense e[5mC]*e[5mC]*eA*eT*eT*dA*dT*dT*dT*d[5mC]*d[5mC]*dA*dT*d[5mC]*dA*e[5mC]*e[5mC]*eT*eG*e[5mC]) [compound 531147],18%
8,531117 (antisense eA*e[5mC]*e[5mC]*e[5mC]*eA*dA*dT*dT*dA*dT*dT*dT*dT*dT*dA*eA*eT*eG*eG*e[5mC]) [compound 531117],62%
9,531143 (antisense e[5mC]*eA*eT*eG*eG*dA*dA*dA*dA*dA*dT*dT*dA*dA*dG*e[5mC]*eT*e[5mC]*eA*eT) [compound 531143],0%
10,531138 (antisense eT*eT*eT*eA*eA*dA*dT*dG*dT*dG*dT*d[5mC]*dA*d[5mC]*dT*eT*eA*eA*eT*e[5mC]) [compound 531138],0%
11,531124 (antisense eG*eT*eA*e[5mC]*eT*dA*dA*dA*d[5mC]*dA*dT*d[5mC]*d[5mC]*dT*dA*eA*eG*eT*eG*eA) [compound 531124],2%
12,531159 (antisense eA*eT*eT*eT*eG*dT*dT*dA*dA*dA*dA*dG*dT*dT*dG*e[5mC]*eT*eT*eA*eT) [compound 531159],0%
13,531099 (eT*eG*eG*eA*eT*dG*dG*dG*dT*dA*dG*dA*dG*dG*d[5mC]*e[5mC]*eT*eT*eT*e[5mC]; antisense) [compound 531099],64%

# Same assay, conditions: Table 4; HepaRG cells, electroporation with 3,000 nM antisense oligonucleotide, approx. 24 hours; PKK mRNA by RT-PCR (RTS3454), relative to untreated control cells
row,Substance,% inhibition
1,531167 (antisense e[5mC]*eA*eA*eG*eA*dA*dA*d[5mC]*d[5mC]*dA*d[5mC]*d[5mC]*dA*dA*dA*eG*eG*eA*eA*eG) [compound 531167],37%
2,531161 (antisense e[5mC]*eA*eG*eA*e[5mC]*dA*d[5mC]*d[5mC]*dT*dT*d[5mC]*dT*dT*d[5mC]*dA*e[5mC]*eA*eA*eG*eG) [compound 531161],40%
3,531191 (eA*eA*eG*eT*eG*dT*dA*dT*dT*dG*d[5mC]*d[5mC]*dT*dA*dG*eA*eT*eT*eT*e[5mC]; antisense) [compound 531191],37%
4,531212 (eA*e[5mC]*eA*eT*e[5mC]*dA*dG*dT*dA*dG*d[5mC]*dT*dT*d[5mC]*dA*eG*eA*eT*eG*eT; antisense) [compound 531212],56%
5,531201 (eT*eT*eT*e[5mC]*e[5mC]*dA*dA*dT*dA*d[5mC]*dT*dT*dT*dT*dA*e[5mC]*eA*eA*eA*eT; antisense) [compound 531201],52%
6,531175 (antisense eT*eA*e[5mC]*eT*e[5mC]*dA*dG*dG*dA*dA*dA*dT*dT*dA*dG*eA*eA*eT*eA*eT) [compound 531175],25%
7,531188 (eG*eT*eT*eA*eA*dA*dA*d[5mC]*dA*dA*d[5mC]*dT*dA*dG*dA*eA*eG*e[5mC]*e[5mC]*eA; antisense) [compound 531188],67%
8,531177 (antisense eT*eT*e[5mC]*eT*eT*dG*dT*dA*dA*dA*dT*dG*dT*d[5mC]*dT*eG*eA*eA*eT*eT) [compound 531177],61%
9,531221 (eA*eA*eG*eG*eG*dA*dT*dT*dT*dA*dA*dA*dA*dT*dT*eT*eT*eT*eA*eT; antisense) [compound 531221],0%
10,531174 (antisense eT*eG*eT*eT*eA*dA*dG*dT*dA*dT*dA*dT*dT*dA*dA*e[5mC]*eT*eA*eT*eT) [compound 531174],10%
11,531178 (antisense eA*e[5mC]*e[5mC]*eA*e[5mC]*dA*dG*dG*dA*dA*dA*d[5mC]*dT*dG*dT*eA*eG*e[5mC]*eA*eA) [compound 531178],72%
12,531225 (eA*e[5mC]*eA*e[5mC]*eT*dT*dG*dT*dA*d[5mC]*d[5mC]*d[5mC]*d[5mC]*dA*dT*eA*e[5mC]*eA*eT*e[5mC]; antisense) [compound 531225],45%
13,531171 (antisense eA*eG*eG*e[5mC]*e[5mC]*dT*dG*d[5mC]*d[5mC]*dA*d[5mC]*dA*dG*dG*d[5mC]*e[5mC]*eA*eG*eA*e[5mC]) [compound 531171],40%
14,531193 (eT*eT*eA*eT*eT*d[5mC]*d[5mC]*d[5mC]*dA*dG*d[5mC]*dT*d[5mC]*dT*dA*eA*eA*eA*eT*eA; antisense) [compound 531193],23%
